Marks after values point to notes of the source that are not given here. Starred links: 1 amine or outer side, 2 acyl side, 3 side chain; linkers in the order of their positions; H or OH if unused. Non-standard residues stand in square brackets, D forms with d. Residues, ends and D or L forms follow the SMILES beside them. Groups on a side chain read outwards from the residue. *: point of attachment. X1 = CCCCCCCCCCCCCCCC(=O)N[C@@H](CCC(=O)N[C@@H](CCC(=O)N[C@@H](CCC(=O)NCCCOCCOCCOCCCNC(=O)CCC(=O)NCCCOCCOCCOCCCNC(=O)CCC(=O)NCCCOCCOCCOCCCN*)C(=O)O)C(=O)O)C(=O)O; X2 = CCCCCCCCCCCCCCCC(=O)N[C@@H](CCC(=O)N[C@@H](CCC(=O)N[C@@H](CCC(=O)NCCCOCCOCCOCCCNC(=O)CCC(=O)NCCCOCCOCCOCCCN*)C(=O)O)C(=O)O)C(=O)O; Suc = O=C(CCC(=O)[*:2])[*:1]; αMeK = C[C@](N)(CCCCN)C(=O)O; Aib = CC(C)(N)C(=O)O
Key:
RXFP1 = target: T1, RXFP1 (Homo sapiens, UniProt Q9HBX9); assay: OVCAR5 cAMP assay (HTRF); assay type: cell-based; details: for EC50: OVCAR 5 cells expressing endogenous RXFP1, cAMP readout; for Emax: OVCAR 5 cells, maximal cAMP relative to H2-relaxin
T1 construct: OVCAR5 cells expressing endogenous RXFP1; endogenous in cells; host or cells: OVCAR5
T1 sequence (Q9HBX9 1-757): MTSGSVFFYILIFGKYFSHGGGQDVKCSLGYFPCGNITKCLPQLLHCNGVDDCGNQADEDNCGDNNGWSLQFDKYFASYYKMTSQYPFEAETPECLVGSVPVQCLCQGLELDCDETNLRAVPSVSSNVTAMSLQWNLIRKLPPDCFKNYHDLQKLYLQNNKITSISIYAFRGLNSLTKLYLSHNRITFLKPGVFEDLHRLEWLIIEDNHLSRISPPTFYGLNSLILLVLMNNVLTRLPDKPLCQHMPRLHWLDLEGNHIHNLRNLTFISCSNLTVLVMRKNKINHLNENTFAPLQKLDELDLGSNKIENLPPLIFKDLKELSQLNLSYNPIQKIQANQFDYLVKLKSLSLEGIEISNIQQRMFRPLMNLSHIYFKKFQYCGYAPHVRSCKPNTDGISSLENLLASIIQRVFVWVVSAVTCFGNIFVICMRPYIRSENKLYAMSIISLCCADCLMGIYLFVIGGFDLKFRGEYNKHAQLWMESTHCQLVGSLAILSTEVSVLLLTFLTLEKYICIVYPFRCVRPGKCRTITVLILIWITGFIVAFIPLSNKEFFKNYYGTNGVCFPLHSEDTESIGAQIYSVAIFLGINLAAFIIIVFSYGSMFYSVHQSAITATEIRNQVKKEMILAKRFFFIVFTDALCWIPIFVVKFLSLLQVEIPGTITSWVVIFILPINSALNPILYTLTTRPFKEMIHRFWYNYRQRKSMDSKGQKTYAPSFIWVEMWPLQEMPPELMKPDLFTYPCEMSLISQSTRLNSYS
Outline: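 Peptide agonism measured as intracellular cAMP (HTRF) after 30 min at 37° C in serum-free medium, following 40 min 1 mM IBMX preincubation of OVCAR5 cells. Nonlinear regression gave EC50; Emax % = 100 × compound maximal cAMP / H2-relaxin maximal cAMP.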

Stability in rat plasma = assay type: in vitro ADME; details: for Rat plasma stability % remaining: T = 0, 37° C., 5 μM; for remaining at 1 h, 5 μM / remaining at 4 h, 5 μM: rat, plasma (sodium or lithium heparin), 37° C.
Description: (§1) Prior to the testing of stability in plasma (or blood) of a peptide batch, its purity (HPLC-UV) was determined.
Rat and Human plasma: anti-coagulant sodium or lithium heparin.
(§2) 100 μM solution of study compound in 50 mM phosphate buffer pH 7.4.
(§3) 950 μL plasma (or blood) was pre-incubated for 5 min at 37° C. 50 μL of compound stock solution was added. Final compound concentration=5 μM. Vortex and transfer 150 μL plasma (or blood) into an Eppendorf for each time point. The time points […] were carried out in duplicate for each species.
(§4) After incubation, 150 μL plasma (or blood) was extracted with 600 μL Acetonitrile containing 1% TFA. Said mixture was then vortexed and centrifuged 10 min at 14600 rpm. 200 μL supernatant was dried under N2. Sample was then reconstituted in 200 μL of H2O/CH3CN 98/2+0.1% FA+50 ng/ml Labetalol and analyzed using the analytical system used in solubility and stability studies.
(§5) For determination of the amount of the remaining peptide, the peak areas of the target compound at t0 and each time point […] were compared, resulting in “% remaining peptide”, following the equation: % remaining peptide=[(peak area peptide time)×100]/peak area peptide t0. The stability was expressed as “% remaining peptide”.

Stability in human blood = assay type: in vitro ADME; details: for Human blood stability % remaining: T = 0, 37° C., 5 μM; for remaining at 1 h, 5 μM / remaining at 4 h, 5 μM: human, whole blood (sodium or lithium heparin), 37° C.
Description: as §1
(§6) Rat and Human blood: anti-coagulant sodium or lithium heparin.
as §2, §3, §4, §5

Stability in rat blood = assay type: in vitro ADME; details: for Rat blood stability % remaining: T = 0, 37° C., 5 μM; for remaining at 1 h, 5 μM / remaining at 4 h, 5 μM: rat, whole blood (sodium or lithium heparin), 37° C.
Description: as §1, §6, §2, §3, §4, §5

in vivo = assay: in vivo; parameters: species or system Sprague Dawley rats; details: Sprague Dawley, rat; for bioavailability / Cmax / Tmax: sc; for Cmax / Tmax: 3 mg/kg
Description: Prior to the testing of a peptide batch, its purity (HPLC-UV) was determined. Dose was corrected for presence of salts, solvent and purity. Bioanalytical screening method for quantification of peptides in rat: Sprague Dawley rats were dosed with study peptide at a dose of 1 mg/kg intravenously (i.v.) or 3 mg/kg subcutaneously (s.c.) as a solution in PBS (0.2 mg/ml and 0.6 mg/ml respectively). Blood samples were collected after: 0.083, 0.25, 0.5, 1, 2, 4, 8, 24, 48 and 72 h (i.v. route) and 0.25, 0.5, 1, 2, 4, 6, 8, 10, 24, 48 and 72 h (s.c route) post application. Plasma samples were analyzed after protein precipitation via liquid chromatography mass spectrometry (LC/MS). PK parameters and half-life were calculated using Phoenix 64 (WinNonlin 6.4)-Pharsight (Certara™) (non-compartment model). Values below the limit of quantification (BLQ) were replaced by zero for subsequent calculations and PK analysis. T½: in-vivo half-life, time required for test compound plasma concentration to be divided by two during the PK experiment. C0: Extrapolated test compound plasma concentration at t=0 time point (i.v. route). Cmax: maximal test compound plasma concentration at the indicated time point (s.c. route). Tmax: Time point where Cmax was attained. F %: s.c. vs i.v. bioavailability, dose-corrected area under curve (AUC) s.c. route divided by AUC i.v.

SMILES | EC50 (RXFP1) [nM] | Emax (RXFP1) [%] | Rat plasma stability % remaining (Stability in rat plasma) [%] | remaining at 1 h, 5 μM (Stability in rat plasma) [%] | remaining at 4 h, 5 μM (Stability in rat plasma) [%] | Human blood stability % remaining (Stability in human blood) | remaining at 1 h, 5 μM (Stability in human blood) [%] | remaining at 4 h, 5 μM (Stability in human blood) [%] | Rat blood stability % remaining (Stability in rat blood) | remaining at 1 h, 5 μM (Stability in rat blood) [%] | remaining at 4 h, 5 μM (Stability in rat blood) [%] | C0 (in vivo; iv, 1 mg/kg) [nM] | half-life (in vivo; iv, 1 mg/kg) [h] | bioavailability (in vivo) [%] | Cmax (in vivo) [nM] | Tmax (in vivo) [h] | T½ (h), in-vivo half-life (in vivo; iv, 1 mg/kg) [h]
CCCCCCCCCCCCCCCC(=O)N[C@@H](CCC(=O)N[C@@H](CCC(=O)N[C@@H](CCC(=O)NCCCOCCOCCOCCCNC(=O)CCC(=O)NCCCOCCOCCOCCCNC(=O)CCC(=O)NCCCC[C@H](NC(=O)CNC(=O)[C@H](CCC(=O)O)NC(=O)C(C)(C)NC(=O)C(C)(C)NC(=O)[C@@H](NC(=O)[C@H](CCCCNC(C)=O)NC(=O)[C@H](C)NC(=O)[C@H](CCCNC(=N)N)NC(=O)[C@@H](NC(=O)[C@H](CCCCN)NC(=O)[C@H](CCC(=O)O)NC(=O)[C@H](CCCNC(=N)N)NC(=O)CNC(=O)[C@H](CCC(=O)O)NC(=O)[C@H](CC(C)C)NC(C)=O)C(C)C)[C@@H](C)CC)C(=O)N[C@@H](CO)C(=O)N[C@H](C(=O)N[C@@H](Cc1c[nH]c2ccccc12)C(=O)N[C@@H](CO)C(=O)NC(C)(C)C(=O)N[C@@H](CCCNC(=N)N)C(=O)N[C@@H](CCCCN)C(=O)N[C@@H](CCCCNC(C)=O)C(N)=O)[C@@H](C)O)C(=O)O)C(=O)O)C(=O)O [compound 4] (Ac-LEGREKVRAK(Ac)I[Aib][Aib]EGK([Suc-X2])STWS[Aib]RKK(Ac)-NH2) | 1.5 | 89 | 100 | 100 | 59 | 100* % | 100 | 99 | 100* % | 102 | 86 | 2750 | 8.71 | 69 | 1990 | 8 | –
CCCCCCCCCCCCCCCC(=O)N[C@@H](CCC(=O)N[C@@H](CCC(=O)N[C@@H](CCC(=O)NCCCOCCOCCOCCCNC(=O)CCC(=O)NCCCOCCOCCOCCCNC(=O)CCC(=O)NCCCOCCOCCOCCCNC(=O)CCC(=O)NCCCC[C@H](NC(=O)CNC(=O)[C@H](CCC(=O)O)NC(=O)C(C)(C)NC(=O)C(C)(C)NC(=O)[C@@H](NC(=O)[C@H](CCCCNC(C)=O)NC(=O)[C@H](C)NC(=O)[C@H](CCCNC(=N)N)NC(=O)[C@@H](NC(=O)[C@H](CCCCN)NC(=O)[C@H](CCC(=O)O)NC(=O)[C@H](CCCNC(=N)N)NC(=O)CNC(=O)[C@H](CCC(=O)O)NC(=O)[C@H](CC(C)C)NC(C)=O)C(C)C)[C@@H](C)CC)C(=O)N[C@@H](CO)C(=O)N[C@H](C(=O)N[C@@H](Cc1ccccc1)C(=O)N[C@@H](CO)C(=O)N[C@@](C)(CCCCN)C(=O)N[C@@H](CCCNC(=N)N)C(=O)N[C@@H](C)C(=O)N[C@@H](CCCCNC(C)=O)C(N)=O)[C@@H](C)O)C(=O)O)C(=O)O)C(=O)O [compound 3] (Ac-LEGREKVRAK(Ac)I[Aib][Aib]EGK([Suc-X1])STFS[αMeK]RAK(Ac)-NH2) | 0.34 | 97 | 98 | 100 | 87 | 100* % | 95 | 95 | 100* % | 95 | 84 | 3200 | – | 83 | 2300 | 8 | 7.8

— patent US11725036B2, “Modified lipidated relaxin B chain peptides and their therapeutic use” (Sanofi, priority 2018, dated 2023)
